Laboratory results as given in patent publication US7312210B2, “Pyrrolo[2,1-c][1,4]benzodiazepine compounds and processes for the preparation thereof” (Council of Scientific and Industrial Research, priority 2005, dated 2007).

Key:
[1] = tested on: sixty human tumor cells derived from nine cancer types; experiment: NCI in vitro cytotoxicity screen (SRB assay), mean graph midpoints over all cell lines; assay type: cell-based; settings: for Log10LC50 mean graph midpoint (MG_MID): 50% cell death (−50% growth); for Log10LC50 mean graph midpoint (MG_MID) / Log10GI50 mean graph midpoint (MG_MID) / Log10TGI mean graph midpoint (MG_MID): 48 h continuous drug exposure, SRB protein assay, human tumor cell lines; for Log10GI50 mean graph midpoint (MG_MID): 50% cell growth inhibition; for Log10TGI mean graph midpoint (MG_MID): total cell growth inhibition (0% growth)
Method: (§1) Biological Activity: In vitro biological activity studies were carried out at the National Cancer Institute (USA).
(§2) Cytotoxicity: The compounds 7-methoxy-8-{5-[4-(2-oxo-2H-4-chromenyl)piperazino]pentyl}-oxy-(11aS)-1,2,3,11a-5H-pyrrolo[2,1-c][1,4]benzodiazepin-5-one, 7-methoxy-8-{3-[4-(7-methoxy-8-methyl-2-oxo-2H-4-chromenyl)piperazino]propyl}-oxy-(11aS)-1,2,3,11a-5H-pyrrolo[2,1-c][1,4]benzodiazepin-5-one and 7-methoxy-8-{5-[4-(7-methoxy-8-methyl-2-oxo-2H-4-chromenyl)piperazino]pentyl}-oxy-(11aS)-1,2,3,11a-5H-pyrrolo[2,1-c][1,4]benzodiazepin-5-one were evaluated for in vitro anticancer activity against sixty human tumor cells derived from […] (leukemia, non-small-cell lung, colon, CNS, melanoma, ovarian, prostate, and breast cancer) as shown in (Table 2). For each compound, dose response curves for each cell line were measured at a minimum of five concentrations at 10 fold dilutions. A protocol of 48 h continuous drug exposure was used and a sulforhodamine B (SRB) protein assay was used to estimate cell viability or growth. The concentration causing 50% cell growth inhibition (GI50), total cell growth inhibition (TGI 0% growth) and 50% cell death (LC50, −50% growth) compared with the control was calculated.

[2] = tested on: Leukemia cancer cell lines; experiment: NCI in vitro cytotoxicity screen (SRB assay), leukemia cell lines; assay type: cell-based, human; settings: average of six to nine different cancer cell lines, 48 h exposure
Method: as §1, §2
(§3) Each cancer type represents the average of six to nine different cancer cell lines.

[3] = tested on: CNS cancer cell lines; experiment: NCI in vitro cytotoxicity screen (SRB assay), CNS cell lines; assay type: cell-based, human; settings: average of six to nine different cancer cell lines, 48 h exposure
Method: as §1, §2, §3

[4] = tested on: Melanoma cancer cell lines; experiment: NCI in vitro cytotoxicity screen (SRB assay), melanoma cell lines; assay type: cell-based, human; settings: average of six to nine different cancer cell lines, 48 h exposure
Method: as §1, §2, §3

[5] = tested on: Breast cancer cell lines; experiment: NCI in vitro cytotoxicity screen (SRB assay), breast cell lines; assay type: cell-based, human; settings: average of six to nine different cancer cell lines, 48 h exposure
Method: as §1, §2, §3

[6] = tested on: Renal cancer cell lines; experiment: NCI in vitro cytotoxicity screen (SRB assay), renal cell lines; assay type: cell-based, human; settings: average of six to nine different cancer cell lines, 48 h exposure
Method: as §1, §2, §3

[7] = tested on: Colon cancer cell lines; experiment: NCI in vitro cytotoxicity screen (SRB assay), colon cell lines; assay type: cell-based, human; settings: average of six to nine different cancer cell lines, 48 h exposure
Method: as §1, §2, §3

[8] = tested on: Non-small-cell-lung cancer cell lines; experiment: NCI in vitro cytotoxicity screen (SRB assay), non-small-cell-lung cell lines; assay type: cell-based, human; settings: average of six to nine different cancer cell lines, 48 h exposure
Method: as §1, §2, §3

[9] = tested on: Prostate cancer cell lines; experiment: NCI in vitro cytotoxicity screen (SRB assay), prostate cell lines; assay type: cell-based, human; settings: average of six to nine different cancer cell lines, 48 h exposure
Method: as §1, §2, §3

[10] = tested on: Ovarian cancer cell lines; experiment: NCI in vitro cytotoxicity screen (SRB assay), ovarian cell lines; assay type: cell-based, human; settings: average of six to nine different cancer cell lines, 48 h exposure
Method: as §1, §2, §3

| Structure (SMILES) | Log10LC50 mean graph midpoint (MG_MID) [1] | Log10GI50 mean graph midpoint (MG_MID) [1] | Log10TGI mean graph midpoint (MG_MID) [1] | mean graph pattern: profile of activity and selectivity ([1]; various cell lines) | Log10LC50 concentration in mol/L causing 50% lethality [2] [mol/L] | Log10LC50 concentration in mol/L causing 50% lethality [3] [mol/L] | Log10LC50 concentration in mol/L causing 50% lethality [4] [mol/L] | Log10LC50 concentration in mol/L causing 50% lethality [5] [mol/L] | Log10LC50 concentration in mol/L causing 50% lethality [6] [mol/L] | Log10LC50 concentration in mol/L causing 50% lethality [7] [mol/L] | Log10LC50 concentration in mol/L causing 50% lethality [8] [mol/L] | Log10LC50 concentration in mol/L causing 50% lethality [9] [mol/L] | Log10LC50 concentration in mol/L causing 50% lethality [10] [mol/L] |
| --- | --- | --- | --- | --- | --- | --- | --- | --- | --- | --- | --- | --- | --- |
| COc1cc2c(cc1OCCCCCN1CCN(c3cc(=O)oc4ccccc34)CC1)N=C[C@@H]1CCCN1C2=O [Compound 5c, 7-Methoxy-8-{5-[4-(2-oxo-2H-4-chromenyl)piperazino]pentyl}-oxy-(11aS)-1,2,3,11a-5H-pyrrolo[2,1-c][1,4]benzodiazepin-5-one] | −4.99 | −7.68 | −6.66 | interesting profile of activity and selectivity for various cell lines | −5.03 | −4.70 | −5.68 | −4.71 | −5.26 | −5.24 | −4.92 | −4.53 | −5.44 |
| COc1cc2c(cc1OCCCN1CCN(c3cc(=O)oc4c(C)c(OC)ccc34)CC1)N=C[C@@H]1CCCN1C2=O [Compound 5d, 7-Methoxy-8-{3-[4-(7-methoxy-8-methyl-2-oxo-2H-4-chromenyl)piperazino]propyl}-oxy-(11aS)-1,2,3,11a-5H-pyrrolo[2,1-c][1,4]benzodiazepin-5-one] | −4.19 | −5.68 | −4.86 | – | −4.22 | −4.11 | −4.34 | −4.11 | −5.29 | −4.87 | −4.23 | −4.00 | −4.00 |
| COc1cc2c(cc1OCCCCCN1CCN(c3cc(=O)oc4c(C)c(OC)ccc34)CC1)N=C[C@@H]1CCCN1C2=O [Compound 5f, 7-Methoxy-8-{5-[4-(7-methoxy-8-methyl-2-oxo-2H-4-chromenyl)piperazino]pentyl}-oxy-(11aS)-1,2,3,11a-5H-pyrrolo[2,1-c][1,4]benzodiazepin-5-one] | −4.96 | −6.49 | −5.85 | – | −5.39 | −4.63 | −5.29 | −4.52 | −5.17 | −5.41 | −4.87 | −4.85 | −4.28 |
